{"source": "patent US11224572B1", "about": "“Stable oral liquid composition of terazosin” (Novitium Pharma LLC, priority 2020, dated 2022)", "origin": "cited, not measured here", "key": {"[1]": {"conditions": "patients treated with terazosin"}, "[2]": {"test_system": "alpha-1 adrenoceptor"}, "[3]": {"test_system": "alpha-1 adrenoceptor", "conditions": "in animals"}}, "note": "Counter-ions that a name gives are not always drawn."}
{"smiles": "COc1cc2nc(N3CCN(C(=O)C4CCCO4)CC3)nc(N)c2cc1OC", "note": "(racemic) [terazosin, (RS)-Piperazine, 1-(4-amino-6,7-dimethoxy-2-quinazolinyl)-4-[(tetrahydro-2-furanyl)carbonyl]-, monohydrochloride]", "values": [{"measurement": "patients experiencing an increase in urinary flow and improvement in symptoms of BPH", "setting": "[1]", "value": "approximately 70%"}, {"measurement": "time within which blood pressure decreases following oral administration", "setting": "[2]", "value": "≤ 15", "unit": "min"}, {"measurement": "effect on blood pressure", "setting": "[3]", "value": "causes a decrease in blood pressure by decreasing total peripheral vascular resistance"}]}
